Assay results: patent US6395526B1, “DNA polymerase” (Takara Shuzo Co., Ltd., priority 1995, dated 2002)

Assays:
Pfu DNA polymerase = molecular target: T1, Pfu DNA polymerase (Pyrococcus furiosus, UniProt P61875); assay: Inhibition by aphidicolin of Pfu DNA polymerase; assay type: biochemical, Pyrococcus furiousus; conditions: 1.0 mM aphidicolin
T1 construct: purchased Stratagene
T1 sequence (P61875 1-775): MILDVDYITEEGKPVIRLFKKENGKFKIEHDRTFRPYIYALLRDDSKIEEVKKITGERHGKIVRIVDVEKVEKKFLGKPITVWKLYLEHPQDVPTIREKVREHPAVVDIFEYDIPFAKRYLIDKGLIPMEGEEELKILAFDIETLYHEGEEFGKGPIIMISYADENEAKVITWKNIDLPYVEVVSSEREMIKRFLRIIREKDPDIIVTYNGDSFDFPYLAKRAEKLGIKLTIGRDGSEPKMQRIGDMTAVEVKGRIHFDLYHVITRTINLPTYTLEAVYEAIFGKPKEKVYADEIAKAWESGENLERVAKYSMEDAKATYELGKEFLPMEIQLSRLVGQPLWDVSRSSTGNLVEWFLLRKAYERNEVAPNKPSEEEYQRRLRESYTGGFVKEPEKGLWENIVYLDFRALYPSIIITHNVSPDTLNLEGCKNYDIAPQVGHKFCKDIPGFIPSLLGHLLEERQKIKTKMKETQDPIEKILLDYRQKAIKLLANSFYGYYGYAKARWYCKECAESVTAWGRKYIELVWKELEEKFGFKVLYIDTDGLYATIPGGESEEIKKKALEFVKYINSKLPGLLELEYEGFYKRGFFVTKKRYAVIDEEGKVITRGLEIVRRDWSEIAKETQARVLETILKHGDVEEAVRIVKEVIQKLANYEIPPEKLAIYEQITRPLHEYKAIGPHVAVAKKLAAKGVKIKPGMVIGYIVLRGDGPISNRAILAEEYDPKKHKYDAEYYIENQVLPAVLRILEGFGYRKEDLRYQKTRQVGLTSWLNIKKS
Procedure: (§1) In order to compare the modes of inhibition by inhibitors, the modes of inhibition of the DNA polymerase of the present invention and an α-type DNA polymerase derived from Pyrococcus furiousus (Pfu DNA polymerase, manufactured by Stratagene), a known DNA polymerase, were compared using a specific inhibitor of α-type DNA polymerases, aphidicolin. The activity changes were examined, while the aphidicolin concentration was increased from 0 to 2.0 mM in the presence of 20 mM Tris-HCl, pH 7.7, 15 mM MgCl2, 2 mM 2-mercaptoethanol, 0.2 mg/ml activated DNA, and 40 μM each of dATP, dGTP, dCTP and dTTP.

[1] = molecular target: T2, DNA polymerase of the present invention (Pyrococcus furiosus, UniProt P81409); assay: Inhibition by aphidicolin of the DNA polymerase of the present invention; assay type: biochemical; conditions: 2.0 mM aphidicolin
T2 construct: made in house; host or cells: Escherichia coli JM109 carrying pFU1001 (genomic XbaI-XbaI fragment in pTV118N)
T2 sequence (P81409 1-1263): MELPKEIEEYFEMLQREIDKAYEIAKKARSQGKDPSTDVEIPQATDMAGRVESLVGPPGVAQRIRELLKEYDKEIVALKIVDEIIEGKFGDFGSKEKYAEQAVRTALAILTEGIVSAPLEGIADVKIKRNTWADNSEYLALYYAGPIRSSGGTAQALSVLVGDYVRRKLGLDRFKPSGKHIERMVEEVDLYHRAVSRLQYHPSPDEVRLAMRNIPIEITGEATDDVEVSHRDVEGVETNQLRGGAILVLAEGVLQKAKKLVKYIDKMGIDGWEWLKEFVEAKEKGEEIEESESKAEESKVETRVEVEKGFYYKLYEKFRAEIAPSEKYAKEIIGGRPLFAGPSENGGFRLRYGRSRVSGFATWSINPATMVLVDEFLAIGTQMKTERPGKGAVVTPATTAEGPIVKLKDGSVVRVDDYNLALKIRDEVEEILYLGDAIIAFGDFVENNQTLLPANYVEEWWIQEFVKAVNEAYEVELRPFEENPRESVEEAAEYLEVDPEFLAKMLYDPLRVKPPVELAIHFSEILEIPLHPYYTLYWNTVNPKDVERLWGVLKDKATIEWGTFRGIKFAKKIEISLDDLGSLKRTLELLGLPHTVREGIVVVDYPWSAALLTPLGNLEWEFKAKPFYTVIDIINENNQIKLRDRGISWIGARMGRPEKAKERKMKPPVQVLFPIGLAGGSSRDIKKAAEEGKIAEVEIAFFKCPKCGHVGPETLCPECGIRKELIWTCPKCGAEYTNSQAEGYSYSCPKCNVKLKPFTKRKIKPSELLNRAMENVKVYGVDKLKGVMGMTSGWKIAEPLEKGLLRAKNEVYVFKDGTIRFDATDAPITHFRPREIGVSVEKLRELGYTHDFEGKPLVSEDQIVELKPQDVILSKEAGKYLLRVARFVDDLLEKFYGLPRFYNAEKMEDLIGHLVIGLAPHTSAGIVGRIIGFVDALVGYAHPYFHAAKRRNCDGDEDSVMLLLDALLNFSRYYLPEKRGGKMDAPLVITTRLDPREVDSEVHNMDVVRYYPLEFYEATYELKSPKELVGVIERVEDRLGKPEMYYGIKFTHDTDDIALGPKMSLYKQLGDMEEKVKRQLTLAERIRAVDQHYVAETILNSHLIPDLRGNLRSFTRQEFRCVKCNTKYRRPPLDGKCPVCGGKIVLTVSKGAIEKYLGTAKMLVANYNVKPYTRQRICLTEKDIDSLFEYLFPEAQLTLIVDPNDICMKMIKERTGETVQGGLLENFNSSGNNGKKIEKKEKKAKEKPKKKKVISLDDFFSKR
T2 sequence (P81412 1-613 partner): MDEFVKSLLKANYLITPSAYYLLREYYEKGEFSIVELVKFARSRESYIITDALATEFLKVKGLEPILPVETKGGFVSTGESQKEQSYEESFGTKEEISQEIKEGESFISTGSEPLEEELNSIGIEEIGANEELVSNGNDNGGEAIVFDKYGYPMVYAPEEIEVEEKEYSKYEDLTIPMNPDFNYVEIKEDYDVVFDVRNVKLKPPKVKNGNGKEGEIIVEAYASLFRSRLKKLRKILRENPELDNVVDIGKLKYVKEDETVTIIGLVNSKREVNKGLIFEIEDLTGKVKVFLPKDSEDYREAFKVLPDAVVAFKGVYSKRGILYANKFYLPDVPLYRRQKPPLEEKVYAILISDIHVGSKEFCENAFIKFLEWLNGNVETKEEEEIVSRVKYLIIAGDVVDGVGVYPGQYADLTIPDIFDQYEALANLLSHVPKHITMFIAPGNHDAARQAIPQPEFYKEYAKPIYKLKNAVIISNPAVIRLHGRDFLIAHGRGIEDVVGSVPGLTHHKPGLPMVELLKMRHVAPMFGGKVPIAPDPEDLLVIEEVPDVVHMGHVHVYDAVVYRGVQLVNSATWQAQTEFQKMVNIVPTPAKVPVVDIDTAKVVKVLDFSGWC
Procedure: as §1

C[C@@]1(CO)[C@H](O)CC[C@@]2(C)[C@H]1CC[C@H]1C[C@@H]3C[C@@]12CC[C@]3(O)CO [aphidicolin]
activity of the Pfu DNA polymerase relative to the original activity (Pfu DNA polymerase): 20%
inhibition of the DNA polymerase of the present invention [1]: not inhibited at all
